Assay results: PubChem BioAssay (NCI)
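Cells were grown in 96-well plates and exposed to each compound for 48 hours at five concentrations; endpoints were interpolated linearly between bracketing concentrations, or set to the highest concentration if not reached. At the TGI there is no net growth.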

Columns and labels:
Assay in all cases: growth of human tumour cells (NCI), 48 h
CAKI-1 renal = tested on: CAKI-1 renal
TK-10 renal = tested on: TK-10 renal
HCT-116 colon = tested on: HCT-116 colon
SK-MEL-28 melanoma = tested on: SK-MEL-28 melanoma
LOX IMVI melanoma = tested on: LOX IMVI melanoma
NCI-H226 lung = tested on: NCI-H226 lung
RXF 393 renal = tested on: RXF 393 renal
SNB-75 CNS = tested on: SNB-75 CNS
MDA-MB-231 breast = tested on: MDA-MB-231 breast
UACC-62 melanoma = tested on: UACC-62 melanoma
EKVX NSCLC = tested on: EKVX NSCLC
IGROV1 ovarian = tested on: IGROV1 ovarian
A549 NSCLC = tested on: A549 NSCLC
786-0 renal = tested on: 786-0 renal
ACHN renal = tested on: ACHN renal
MOLT-4 leukemia = tested on: MOLT-4 leukemia
SK-MEL-5 melanoma = tested on: SK-MEL-5 melanoma
SF-539 CNS = tested on: SF-539 CNS
MALME-3M melanoma = tested on: MALME-3M melanoma
OVCAR-5 ovarian = tested on: OVCAR-5 ovarian
RPMI-8226 leukemia = tested on: RPMI-8226 leukemia
DU-145 prostate = tested on: DU-145 prostate
COLO 205 colon = tested on: COLO 205 colon
KM12 colon = tested on: KM12 colon
HCT-15 colon = tested on: HCT-15 colon
OVCAR-3 ovarian = tested on: OVCAR-3 ovarian
PC-3 prostate = tested on: PC-3 prostate
NCI-H23 lung = tested on: NCI-H23 lung
NCI-H460 lung = tested on: NCI-H460 lung
MDA-MB-435 = tested on: MDA-MB-435
HS 578T breast = tested on: HS 578T breast
SW-620 colon = tested on: SW-620 colon
OVCAR-4 ovarian = tested on: OVCAR-4 ovarian
HOP-92 NSCLC = tested on: HOP-92 NSCLC
K-562 leukemia = tested on: K-562 leukemia
NCI-H522 lung = tested on: NCI-H522 lung
BT-549 breast = tested on: BT-549 breast
SF-295 CNS = tested on: SF-295 CNS
SNB-19 CNS = tested on: SNB-19 CNS
A498 renal = tested on: A498 renal
M14 melanoma = tested on: M14 melanoma
SF-268 CNS = tested on: SF-268 CNS
NCI/ADR-RES ovarian = tested on: NCI/ADR-RES ovarian
MDA-N = tested on: MDA-N
HOP-62 NSCLC = tested on: HOP-62 NSCLC
HT29 colon = tested on: HT29 colon
UACC-257 melanoma = tested on: UACC-257 melanoma
U251 CNS = tested on: U251 CNS
SN12C renal = tested on: SN12C renal
UO-31 renal = tested on: UO-31 renal
MCF7 breast = tested on: MCF7 breast
HCC-2998 colon = tested on: HCC-2998 colon
OVCAR-8 ovarian = tested on: OVCAR-8 ovarian
SK-OV-3 ovarian = tested on: SK-OV-3 ovarian
CCRF-CEM leukemia = tested on: CCRF-CEM leukemia
SK-MEL-2 melanoma = tested on: SK-MEL-2 melanoma
SR leukemia = tested on: SR leukemia
HL-60(TB) leukemia = tested on: HL-60(TB) leukemia

Measured: TGI

O=C1C(=C/C=C2/SC(c3ccccc3)(c3ccccc3)c3ccccc32)C(=O)c2ccccc21
not listed: CCRF-CEM leukemia | SK-MEL-2 melanoma | SR leukemia | HL-60(TB) leukemia
> 100 µM: all other assays above

O=C(CN1CCN(c2ccccc2)CC1)c1ccc2[nH]c(=O)oc2c1
not listed: A549 NSCLC | SK-MEL-5 melanoma | OVCAR-4 ovarian | HOP-92 NSCLC | NCI-H522 lung | SNB-19 CNS | UO-31 renal | HCC-2998 colon
> 100 µM: all other assays above

CCC(=O)O[C@H]1CC[C@H]2[C@@H]3CCC4=CC(=O)C=C[C@]4(O)[C@H]3CC[C@]12C
82.1 µM: HOP-92 NSCLC
80.5 µM: SR leukemia
37.6 µM: HL-60(TB) leukemia
91.9 µM: NCI/ADR-RES ovarian
69.5 µM: LOX IMVI melanoma
45.8 µM: SK-MEL-2 melanoma
17.2 µM: CCRF-CEM leukemia
64.5 µM: DU-145 prostate
58.4 µM: HT29 colon
44.5 µM: NCI-H460 lung
19.9 µM: SK-MEL-5 melanoma
52.4 µM: RXF 393 renal
85.1 µM: KM12 colon
57.5 µM: BT-549 breast
68.4 µM: OVCAR-3 ovarian
26.8 µM: UACC-257 melanoma
47.4 µM: U251 CNS
88.4 µM: CAKI-1 renal
81.4 µM: PC-3 prostate
10.2 µM: MDA-MB-435
58.5 µM: MDA-MB-231 breast
not listed: SNB-75 CNS | HCC-2998 colon
> 100 µM: all other assays above
